From patent US20110245249A1, “Heterocyclically Substituted Anilinopyrimidines” (Bayer CropScience AG, priority 2008, published 2011)

Columns and labels:
Fusarium proliferatum = experiment: Growth of Fusarium proliferatum (OD620) in the fumonisin test; format: cell-based; details: for pI50 growth: OD620 at the beginning and after 6 days; for IC50: Fusarium proliferatum, 144 h, read-out: pI50 growth
Phakopsora pachyrhizi = experiment: Phakopsora test (soya beans)/protective; format: in vivo; details: protective, active compound concentration 250 ppm, evaluation 1 day after inoculation
Experimental: Phakopsora Test (Soya Beans)/Protective
Evaluation is carried out 1 day after the inoculation.

[1] = logP by HPLC on reversed-phase columns (EEC Directive 79/831 Annex V.A8); format: physicochemical; details: for log p [a]: pH 2.3; for log p [c]: pH 7.8
How it was run: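 Values come from three gradient methods (10% to 95% acetonitrile) on C18 columns following EEC 79/831 Annex V.A8: LC-MS at pH 7.8 (0.001 molar ammonium bicarbonate), LC-MS at pH 2.7 (formic acid 0.1%, also in acetonitrile), and HPLC at pH 2.3 (phosphoric acid 0.1%).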

[2] = system: Production of Fumonisin FB1 by Fusarium proliferatum; experiment: Production of Fumonisin FB1 by Fusarium proliferatum; format: cell-based; details: FB1 in liquid medium after 6 days at 20° C., HPLC-MS/MS; for IC50: Fusarium proliferatum, 144 h, read-out: pI50 Fum (converted)
[3] = system: Production of DON/acetyl-DON by Fusarium graminearum; experiment: microbe, parasite or virus in culture; format: cell-based; details: 168 h, 7 days at 28° C., read-out: activity in the inhibition of DON/AcDON

With `COCC1COC(c2cccc(Nc3ncc(C(F)(F)F)c(NC4CC4)n3)c2)O1` (stereo not drawn) [Example 105] the pI50 growth (Fusarium proliferatum) was 5.5, the efficacy (Phakopsora pachyrhizi) was at least 80% and the “log p [a]” value [1] was 2.26. For the same compound, the “log p [b]” value ([1]; pH 2.7) was 2.74[b] and the “log p [c]” value [1] was 3.23.
With `CC(C)(C)C1COC(c2cccc(Nc3ncc(Cl)c(NC4CC4)n3)c2)O1` (stereo not drawn) [Example 30] the pI50 growth (Fusarium proliferatum) was 5.3, the “pI50 Fum” value [2] was 6 and the “log p [c]” value [1] was 4.34[c].
For `FC(F)(F)c1cnc(Nc2cccc(C3OCCO3)c2)nc1NC1CC1` [Example 24], the pI50 growth (Fusarium proliferatum) was 5.5, the “pI50 Fum” value [2] was 6 and the “log p [b]” value ([1]; pH 2.7) was 3.7. For the same compound, the “log p [c]” value [1] was 3.02.
For `CC1OC(c2cccc(Nc3ncc(Br)c(NC4CC4)n3)c2)OC1C` (stereo not drawn) [Example 14], the pI50 growth (Fusarium proliferatum) was 5.5, the “log p [b]” value ([1]; pH 2.7) was 2.31 and the “log p [c]” value [1] was 3.5.
For `CC1(C)COC(c2cccc(Nc3ncc(Br)c(NC4CC4)n3)c2)OC1` [Example 16], the “pI50 Fum” value [2] was 6, the “log p [b]” value ([1]; pH 2.7) was 2.65 and the “log p [c]” value [1] was 3.9.
Compound `CC1(c2cccc(Nc3ncc(Cl)c(NC4CC4)n3)c2)OCCO1` [Example 12, 5-Chloro-N^4-cyclopropyl-N^2-[3-(2-methyl-1,3-dioxolan-2-yl)phenyl]pyrimidine-2,4-diamine] has an IC50 (Fusarium proliferatum) of 1580 nM, an IC50 [2] of 501 nM and a chromatographic logP ([1]; pH 2.7, log p [b]) of 1.9. For the same compound, the chromatographic logP ([1]; pH 2.7, logP (pH 2.7)) was 1.9 and the chromatographic logP ([1]; pH 7.8, log p [c]) was 3.09.
With `CC1(c2cccc(Nc3ncc(Cl)c(NC4CC4)n3)c2)OCCCO1` [Example 6] the pI50 growth (Fusarium proliferatum) was 5.5.
`Clc1cnc(Nc2cccc(C3OCCO3)c2)nc1NC1CC1` [Example 1, 5-Chloro-N^4-cyclopropyl-N^2-[3-(1,3-dioxolan-2-yl)phenyl]pyrimidine-2,4-diamine] showed an IC50 (Fusarium proliferatum) of 398 nM, an IC50 [2] of 158 nM and an inhibition at 50 µM [3] of over 80%. For the same compound, the chromatographic logP ([1]; pH 2.7, log p [b]) was 1.59, the chromatographic logP ([1]; pH 2.7, logP (pH 2.7)) was 1.59 and the chromatographic logP ([1]; pH 7.8, log p [c]) was 2.67.
For `Clc1cnc(Nc2cccc(C3OCCCO3)c2)nc1NC1CC1` [Example 5, 5-Chloro-N^4-cyclopropyl-N^2-[3-(1,3-dioxan-2-yl)phenyl]pyrimidine-2,4-diamine], the IC50 (Fusarium proliferatum) was 794 nM, the IC50 [2] was 251 nM and the chromatographic logP ([1]; pH 2.7, log p [b]) was 1.69. It also gave a chromatographic logP ([1]; pH 2.7, logP (pH 2.7)) of 1.69 and a chromatographic logP ([1]; pH 7.8, log p [c]) of 2.83.
For `CN(c1nc(Nc2cccc(C3OCCO3)c2)ncc1Cl)C1CC1` [Example 23], the pI50 growth (Fusarium proliferatum) was 4.9, the “log p [b]” value ([1]; pH 2.7) was 2.52 and the “log p [c]” value [1] was 3.45.
With `COCC1COC(c2cccc(Nc3ncc(Cl)c(NC4CC4)n3)c2)O1` (stereo not drawn) [Example 28] the “pI50 Fum” value [2] was 6.5, the “log p [b]” value ([1]; pH 2.7) was 2.21 and the “log p [c]” value [1] was 2.81.
In the case of `FC(F)(F)c1cnc(Nc2cccc(C3OCCO3)c2)nc1NC1CCC1` [Example 22], the pI50 growth (Fusarium proliferatum) is reported as 5.5, the “log p [b]” value ([1]; pH 2.7) is reported as 3.06 and the “log p [c]” value [1] is reported as 3.57.
In the case of `CC1(c2ccc(Nc3ncc(Cl)c(NC4CC4)n3)cc2)OCCO1` [Example 27, 5-Chloro-N^4-cyclopropyl-N^2-[4-(2-methyl-1,3-dioxolan-2-yl)phenyl]pyrimidine-2,4-diamine], the IC50 (Fusarium proliferatum) is reported as 1000 nM, the IC50 [2] is reported as 398 nM and the chromatographic logP ([1]; pH 2.7, log p [b]) is reported as 1.84. For the same compound, the chromatographic logP ([1]; pH 2.7, logP (pH 2.7)) was 1.84 and the chromatographic logP ([1]; pH 7.8, log p [c]) was 2.99.
In the case of `C=CCOCC1COC(c2cccc(Nc3ncc(Br)c(NC4CC4)n3)c2)O1` (stereo not drawn) [Example 107], the “log p [a]” value [1] is reported as 2.01 and the “log p [b]” value ([1]; pH 2.7) is reported as 2.43.
In the case of `Clc1cnc(Nc2cccc(C3OCCO3)c2)nc1NC1CCC1` [Example 31], the “log p [b]” value ([1]; pH 2.7) is reported as 1.91 and the “log p [c]” value [1] is reported as 3.23.
For `Clc1cnc(Nc2cccc(C3OCCCO3)c2)nc1NCC1CC1` [Example 152], the log p ([1]; pH 2.7) was 1.87[b].
